What follows are compounds tested against T1, angiotensin converting enzyme (Oryctolagus cuniculus, UniProt P12822) (assay: in vitro inhibition of angiotensin converting enzyme (cleavage of hippuryl-histidyl-leucine)). Conditions: substrate hippuryl-histidyl-leucine 2 mM; potassium phosphate buffer pH 8.3, 100 mM; NaCl 300 mM; 24 minutes at 37° C.
T1 sequence (P12822 34-1310): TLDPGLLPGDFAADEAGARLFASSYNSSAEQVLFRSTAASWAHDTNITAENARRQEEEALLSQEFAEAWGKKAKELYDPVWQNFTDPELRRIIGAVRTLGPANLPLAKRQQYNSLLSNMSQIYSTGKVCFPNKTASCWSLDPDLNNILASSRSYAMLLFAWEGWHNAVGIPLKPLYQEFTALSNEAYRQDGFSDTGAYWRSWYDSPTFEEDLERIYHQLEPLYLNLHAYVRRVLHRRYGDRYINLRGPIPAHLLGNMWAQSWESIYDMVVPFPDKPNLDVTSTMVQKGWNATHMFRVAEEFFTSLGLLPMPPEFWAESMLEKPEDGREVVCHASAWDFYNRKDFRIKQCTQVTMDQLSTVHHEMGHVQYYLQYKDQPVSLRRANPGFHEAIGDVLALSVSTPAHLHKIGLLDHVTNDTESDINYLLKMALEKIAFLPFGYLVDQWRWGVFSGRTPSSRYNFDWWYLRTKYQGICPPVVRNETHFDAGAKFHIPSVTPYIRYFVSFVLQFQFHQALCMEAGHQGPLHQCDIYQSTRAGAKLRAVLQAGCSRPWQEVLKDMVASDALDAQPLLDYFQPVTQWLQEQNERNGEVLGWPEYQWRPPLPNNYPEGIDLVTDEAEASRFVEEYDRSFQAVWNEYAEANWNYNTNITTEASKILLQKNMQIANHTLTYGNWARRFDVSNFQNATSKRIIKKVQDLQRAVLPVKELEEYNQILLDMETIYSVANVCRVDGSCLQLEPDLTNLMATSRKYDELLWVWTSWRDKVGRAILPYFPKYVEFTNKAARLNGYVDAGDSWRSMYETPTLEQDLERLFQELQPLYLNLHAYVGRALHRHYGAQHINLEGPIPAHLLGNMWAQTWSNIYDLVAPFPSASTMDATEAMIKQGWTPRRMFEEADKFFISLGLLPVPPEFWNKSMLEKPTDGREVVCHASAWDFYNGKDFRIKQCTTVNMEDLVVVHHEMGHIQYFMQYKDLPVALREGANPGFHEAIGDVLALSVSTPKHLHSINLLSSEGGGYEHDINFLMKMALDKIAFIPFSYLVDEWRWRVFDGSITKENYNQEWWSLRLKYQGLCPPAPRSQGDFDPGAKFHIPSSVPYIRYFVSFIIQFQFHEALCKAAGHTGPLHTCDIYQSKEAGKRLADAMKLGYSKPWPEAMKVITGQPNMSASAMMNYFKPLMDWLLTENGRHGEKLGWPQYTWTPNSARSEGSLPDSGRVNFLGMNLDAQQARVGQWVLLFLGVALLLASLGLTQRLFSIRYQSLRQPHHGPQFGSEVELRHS
Assay type: biochemical
Method: The activity of the compounds of formula I and the aforementioned salts in inhibiting angiotensin converting enzyme in vitro can be determined by the following test.
The method used is based on the method of Cushman and Cheung (Biochem. Pharmacol., 20. 1637-1648) incorporating the modifications introduced by Hayakari et al (Anal. Biochem., 84. 361-369). The substrate, which is hippuryl-histidyl-leucine, 2 mM, is incubated with angiotensin converting enzyme in the presence or absence of various concentrations of test substance in potassium phosphate buffer (pH 8.3; 100 mM) containing sodium chloride (300 mM) for 24 minutes at 37° C. (total value 500 μl). If the test substance is an ester, it is appropriate to cleave it by means of hog liver esterase before carrying out the test. The reaction is terminated by the addition of 3 ml of potassium phosphate buffer (pH 8.3; 200 mM) at 0° C. 2,4,6-Trichloro-s-triazine (3%) in 1.5 ml of dioxane and the mixture is agitated until the yellow chromophore has developed fully. The samples are then centrifuged to remove any precipitate which has formed. The yellow chromophore formed by the reaction of the 2,4,6-trichloro-s-triazine with free hippuric acid is measured spectrophoto metrically at 382 nm. The IC50 values are defined as the concentration of test substance which reduces by 50% the cleavage of hippuryl-histidyl-leucine by antiotensin converting enzyme under the aforementioned conditions.
The results obtained in the foregoing test using representative compounds of formula I as the test substance are compiled in the following Table: […]

Point of comparison: `O=C(O)[C@@H]1CCCN2C(=O)CN(Cc3ccccc3)C(CS)C(=O)N12` (single isomer, unassigned) [Compound D], IC50 51 nM. Against it:
- O=C(O)[C@@H]1CCCN2C(=O)CC[C@H](CS)C(=O)N12 [Compound A, octahydro-9(S)-mercaptomethyl-6,10-dioxo-6H-pyridazo[1,2-a][1,2]diazepine-1(S)-carboxylic acid] — 13-fold lower, 4 nM
- O=C(O)[C@@H]1CCCN2CCC[C@H](CS)C(=O)N12 [Compound B, octahydro-9(S)-mercaptomethyl-10-oxo-pyridazo[1,2-a][1,2]diazepine-1(S)-carboxylic acid] — 20-fold lower, 2.6 nM
- O=C(O)[C@@H]1CCCN2C(=O)CCCC(CS)C(=O)N12 (stereo partly drawn) [Compound C, decahydro-10(R,S)-mercaptomethyl-6,11-dioxo-6H-pyridazo[1,2-a][1,2]diazocine-1(S)-carboxylic acid] — 2.7-fold lower, 19 nM
